The values below come from US9051612B2, “Compositions and methods for nucleotide sequencing” (Illumina, Inc., priority 2006, dated 2015).

The assay addresses T1, calf intestinal alkaline phosphatase (Bos taurus, UniProt P19111).
T1 construct: purchased USB
The experiment in a line: Enzymatic removal of 2′ phosphate blocking group with alkaline phosphatase. The following applies: aqueous buffer, room temperature. Type of assay: biochemical.

T1 sequence (P19111 20-506): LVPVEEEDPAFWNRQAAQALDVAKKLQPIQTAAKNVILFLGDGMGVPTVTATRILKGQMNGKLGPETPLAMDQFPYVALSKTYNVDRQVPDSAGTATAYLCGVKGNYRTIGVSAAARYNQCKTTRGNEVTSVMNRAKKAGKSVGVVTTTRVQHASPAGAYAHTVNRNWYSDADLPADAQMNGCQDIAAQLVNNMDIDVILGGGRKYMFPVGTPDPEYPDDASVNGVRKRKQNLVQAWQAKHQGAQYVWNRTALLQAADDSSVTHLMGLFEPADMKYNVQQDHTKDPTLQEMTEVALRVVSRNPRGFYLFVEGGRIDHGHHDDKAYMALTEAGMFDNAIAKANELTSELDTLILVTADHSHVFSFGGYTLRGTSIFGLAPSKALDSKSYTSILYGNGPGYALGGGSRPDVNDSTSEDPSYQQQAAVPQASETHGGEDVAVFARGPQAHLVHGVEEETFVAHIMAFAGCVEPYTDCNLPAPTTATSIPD

Consider `O=c1ccn(C2OC(COP(=O)(O)OP(=O)(O)OP(=O)(O)O)C(O)C2OP(=O)(O)O)c(=O)[nH]1` (stereo not shown) [2′ reversible terminator, 2′-phosphate UTP], for which the “removal of the phosphate blocking group” value is given as “can be quantitatively removed using alkaline phosphatase in less than one minute”.
